Measurements taken from patent US20090149484A1, “QUINAZOLIN-4-ONE DERIVATIVES, PROCESS FOR THEIR PREPARATION AND PHARMACEUTICAL COMPOSITIONS CONTAINING THEM” (ASTRAZENECA AB, priority 2006, published 2009).

These molecules were tested against T1, His-tagged Mutant B-Raf (V600E) enzyme (MT B-Raf) (Homo sapiens, UniProt P15056, V600E) (assay: B-Raf in-vitro AlphaScreen assay). Details: phosphorylation of biotinylated HIS-MEK-AVI, 0.12 nM MT B-Raf, 24 μM ATP in mix.
T1 construct: purified full length His-tagged Mutant B-Raf (V600E) enzyme; made in house; host or cells: insect cells
Format: biochemical
Procedure: B-Raf in-Vitro AlphaScreen Assay
Activity of purified full length His-tagged Mutant B-Raf (V600E) enzyme (MT B-Raf) was determined in-vitro using an Amplified Luminescent Proximity Homogeneous Assay (ALPHA)(Perkin Elmer, Mass.), which measures phosphorylation of the MT B-Raf substrate, biotinylated HIS-MEK-AVI (PLAZA internal database, construct #pAZB0141), as described below. MT B-Raf was expressed in insect cells and affinity purified by Ni^+2 agarose followed by Q-Sepharose chromatography. Typical yield was 1.08 mg/ml at >90% purity. The phosphorylation of the MT B-Raf substrate in the presence and absence of the compound of interest was determined. Briefly, 5 μl of enzyme/substrate/adenosine triphosphate (ATP) mix consisting of 0.12 nM MT B-Raf, 84 nM biotinylated HIS-MEK-AVI, and 24 μM ATP in 1.2× buffer was preincubated with 2 ul of compound for 20 minutes at 25° C. Reactions were initiated with 5 μl of Metal mix consisting of 24 mM MgCl2 in 1.2× buffer and incubated at 25° C. for 60 minutes and reactions were stopped by addition of 5 μl of Detection mix consisting of 20 mM HEPES, 102 mM ethylenediamine tetraacetic acid, 1.65 mg/ml BSA, 136 mM NaCl, 3.4 nM Phospho-MEK1/2 (Ser217/221) antibody (Catalog #9121, Cell Signaling Technology, MA), 40 μg/ml Streptavidin donor beads (Perkin Elmer, MA, Catalog #6760002), and 40 μg/ml Protein A acceptor beads (Perkin Elmer, MA, Catalog #6760137). Plates were incubated at 25° C. for 18 hours in the dark. Phosphorylated substrate was detected by an EnVision plate reader (Perkin Elmer, MA) 680 nm excitation, 520-620 nm emission. Data was graphed and IC50s calculated using Excel Fit (Microsoft).

T1 sequence (P15056 whole entry V600E): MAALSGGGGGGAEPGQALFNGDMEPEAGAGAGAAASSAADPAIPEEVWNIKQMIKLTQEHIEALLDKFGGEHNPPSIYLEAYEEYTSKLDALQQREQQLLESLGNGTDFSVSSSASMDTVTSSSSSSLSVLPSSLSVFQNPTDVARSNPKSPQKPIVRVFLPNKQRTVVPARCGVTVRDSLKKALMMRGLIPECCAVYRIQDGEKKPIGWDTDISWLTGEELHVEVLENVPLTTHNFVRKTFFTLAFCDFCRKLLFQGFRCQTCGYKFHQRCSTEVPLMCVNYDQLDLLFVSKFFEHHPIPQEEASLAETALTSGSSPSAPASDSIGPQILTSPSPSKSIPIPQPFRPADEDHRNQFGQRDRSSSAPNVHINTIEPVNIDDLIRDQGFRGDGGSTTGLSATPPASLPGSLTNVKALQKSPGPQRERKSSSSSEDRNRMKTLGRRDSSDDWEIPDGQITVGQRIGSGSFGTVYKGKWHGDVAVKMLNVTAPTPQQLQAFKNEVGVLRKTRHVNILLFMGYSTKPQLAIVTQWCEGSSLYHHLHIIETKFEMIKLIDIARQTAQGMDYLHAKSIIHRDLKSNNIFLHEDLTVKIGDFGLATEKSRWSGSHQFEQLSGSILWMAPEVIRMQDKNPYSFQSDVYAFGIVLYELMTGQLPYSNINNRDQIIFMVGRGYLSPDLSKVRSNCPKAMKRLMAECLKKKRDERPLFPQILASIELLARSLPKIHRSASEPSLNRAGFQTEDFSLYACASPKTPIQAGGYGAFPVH

IC50 [µM]	SMILES
0.205	Cc1cc(NC(=O)Nc2ccc(Cl)c(C(F)(F)F)c2)ccc1Oc1ccc2ncn(C)c(=O)c2c1 [Example 3, N-[4-Chloro-3-(trifluoromethyl)phenyl]-N′-{3-methyl-4-[(3-methyl-4-oxo-3,4-dihydroquinazolin-6-yl)oxy]phenyl}urea]
0.34	Cn1cnc2ccc(Oc3ccc(NC(=O)Nc4cccc(C(F)(F)F)c4F)cc3)cc2c1=O [Example 7, N-[2-Fluoro-3-(trifluoromethyl)phenyl]-N′-{4-[(3-methyl-4-oxo-3,4-dihydroquinazolin-6-yl)oxy]phenyl}urea]
0.287	Cn1cnc2ccc(Oc3ccc(NC(=O)Nc4ccc(Cl)c(C(F)(F)F)c4)cc3)cc2c1=O [Example 1, N-[4-Chloro-3-(trifluoromethyl)phenyl]-N′-{-4-[(3-methyl-4-oxo-3,4-dihydroquinazolin-6-yl)oxy]phenyl}urea]
